# Measurements: US10670605B2, “Cysteine reactive probes and uses thereof” (The Scripps Research Institute, priority 2015, dated 2020)
# Assays:
# Test in all cases: Competitive isoTOP-ABPP in situ (fragment-treated cells)
# Format in all cases: cell-based
# [1] = molecular target: T1, cysteines in MDA-MB-231 and Ramos cells (Homo sapiens, UniProt O95229)
# T1 sequence (O95229 1-277): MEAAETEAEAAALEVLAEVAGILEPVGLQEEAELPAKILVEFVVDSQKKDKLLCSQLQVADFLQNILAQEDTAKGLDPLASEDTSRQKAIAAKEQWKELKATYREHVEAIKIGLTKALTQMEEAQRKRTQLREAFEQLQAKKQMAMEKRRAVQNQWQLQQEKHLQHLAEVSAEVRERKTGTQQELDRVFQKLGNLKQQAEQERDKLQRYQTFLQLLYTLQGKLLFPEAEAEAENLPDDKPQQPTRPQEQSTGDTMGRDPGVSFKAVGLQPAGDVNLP
# [2] = molecular target: cysteines in MDA-MB-231 and Ramos cells (Homo sapiens, UniProt P62888)
# [3] = molecular target: cysteines in MDA-MB-231 and Ramos cells (Homo sapiens, UniProt P04406)
# cysteines in MDA-MB-231 and Ramos cells (Homo sapiens, UniProt P04406), sequence (P04406 whole entry): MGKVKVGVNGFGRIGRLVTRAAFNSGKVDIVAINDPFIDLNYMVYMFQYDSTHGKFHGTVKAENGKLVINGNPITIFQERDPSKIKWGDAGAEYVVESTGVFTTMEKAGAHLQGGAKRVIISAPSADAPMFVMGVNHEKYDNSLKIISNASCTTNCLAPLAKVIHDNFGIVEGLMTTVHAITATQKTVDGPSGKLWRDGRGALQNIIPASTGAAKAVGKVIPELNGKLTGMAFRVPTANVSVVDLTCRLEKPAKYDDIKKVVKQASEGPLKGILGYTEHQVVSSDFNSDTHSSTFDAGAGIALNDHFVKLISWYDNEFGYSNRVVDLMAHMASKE
# [4] = molecular target: T2, cysteines in MDA-MB-231 and Ramos cells (Homo sapiens, UniProt Q9UKF6)
# T2 sequence (Q9UKF6 1-684): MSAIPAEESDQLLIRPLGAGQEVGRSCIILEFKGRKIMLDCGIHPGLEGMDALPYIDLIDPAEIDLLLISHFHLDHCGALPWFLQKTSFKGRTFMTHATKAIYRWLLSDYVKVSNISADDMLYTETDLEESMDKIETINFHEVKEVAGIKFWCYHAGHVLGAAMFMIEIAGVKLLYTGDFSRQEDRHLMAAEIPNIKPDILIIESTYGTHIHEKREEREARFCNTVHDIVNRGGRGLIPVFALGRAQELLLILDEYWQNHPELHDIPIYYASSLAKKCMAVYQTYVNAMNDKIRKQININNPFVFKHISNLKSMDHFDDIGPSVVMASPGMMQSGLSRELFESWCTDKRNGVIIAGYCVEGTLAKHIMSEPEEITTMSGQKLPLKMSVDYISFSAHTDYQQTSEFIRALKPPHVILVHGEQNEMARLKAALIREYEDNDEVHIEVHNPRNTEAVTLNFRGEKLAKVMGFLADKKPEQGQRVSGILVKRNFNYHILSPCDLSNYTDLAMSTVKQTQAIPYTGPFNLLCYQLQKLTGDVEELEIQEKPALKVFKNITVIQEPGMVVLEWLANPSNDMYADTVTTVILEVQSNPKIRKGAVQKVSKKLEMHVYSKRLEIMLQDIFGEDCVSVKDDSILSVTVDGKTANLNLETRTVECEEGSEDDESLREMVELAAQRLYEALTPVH
# [5] = molecular target: T3, cysteines in MDA-MB-231 and Ramos cells (Homo sapiens, UniProt Q9NS86)
# T3 sequence (Q9NS86 1-450): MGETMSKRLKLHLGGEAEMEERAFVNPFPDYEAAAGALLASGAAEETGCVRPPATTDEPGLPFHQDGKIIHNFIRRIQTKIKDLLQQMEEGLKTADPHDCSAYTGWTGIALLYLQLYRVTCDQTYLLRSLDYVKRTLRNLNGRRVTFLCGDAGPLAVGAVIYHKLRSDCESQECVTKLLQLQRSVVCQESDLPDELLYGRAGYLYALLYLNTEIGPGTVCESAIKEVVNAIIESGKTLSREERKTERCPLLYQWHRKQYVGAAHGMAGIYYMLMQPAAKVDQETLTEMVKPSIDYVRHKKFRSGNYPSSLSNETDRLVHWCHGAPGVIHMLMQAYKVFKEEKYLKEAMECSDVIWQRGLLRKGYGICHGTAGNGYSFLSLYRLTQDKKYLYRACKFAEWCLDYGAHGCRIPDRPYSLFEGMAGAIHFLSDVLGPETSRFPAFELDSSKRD
# [6] = molecular target: T4, cysteines in MDA-MB-231 and Ramos cells (Homo sapiens, UniProt P49588)
# T4 sequence (P49588 1-968): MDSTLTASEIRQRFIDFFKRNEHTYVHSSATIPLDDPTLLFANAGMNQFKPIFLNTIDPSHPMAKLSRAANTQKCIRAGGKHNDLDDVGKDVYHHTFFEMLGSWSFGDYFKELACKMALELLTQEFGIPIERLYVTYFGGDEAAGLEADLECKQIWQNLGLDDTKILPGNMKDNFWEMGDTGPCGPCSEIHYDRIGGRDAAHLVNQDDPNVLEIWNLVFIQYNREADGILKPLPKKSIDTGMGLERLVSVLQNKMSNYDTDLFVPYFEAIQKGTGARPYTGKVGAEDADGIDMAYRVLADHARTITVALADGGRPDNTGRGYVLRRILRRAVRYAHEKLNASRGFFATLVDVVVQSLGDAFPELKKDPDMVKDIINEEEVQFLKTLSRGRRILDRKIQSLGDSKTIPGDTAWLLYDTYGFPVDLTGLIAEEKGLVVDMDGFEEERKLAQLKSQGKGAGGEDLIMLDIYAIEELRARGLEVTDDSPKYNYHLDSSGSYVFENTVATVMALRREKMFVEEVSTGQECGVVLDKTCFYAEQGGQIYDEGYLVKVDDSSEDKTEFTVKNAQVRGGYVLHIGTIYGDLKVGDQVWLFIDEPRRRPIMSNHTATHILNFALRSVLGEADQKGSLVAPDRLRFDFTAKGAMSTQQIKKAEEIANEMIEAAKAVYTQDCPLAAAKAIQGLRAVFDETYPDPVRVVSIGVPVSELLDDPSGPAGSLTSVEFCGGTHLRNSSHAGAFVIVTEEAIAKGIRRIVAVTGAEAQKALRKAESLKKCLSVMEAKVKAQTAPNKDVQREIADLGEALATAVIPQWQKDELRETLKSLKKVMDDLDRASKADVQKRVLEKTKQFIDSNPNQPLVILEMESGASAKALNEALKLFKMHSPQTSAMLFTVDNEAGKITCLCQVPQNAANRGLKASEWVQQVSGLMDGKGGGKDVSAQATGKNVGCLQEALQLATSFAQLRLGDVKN
# [7] = molecular target: T5, cysteines in MDA-MB-231 and Ramos cells (Homo sapiens, UniProt P78417)
# T5 sequence (P78417 1-241): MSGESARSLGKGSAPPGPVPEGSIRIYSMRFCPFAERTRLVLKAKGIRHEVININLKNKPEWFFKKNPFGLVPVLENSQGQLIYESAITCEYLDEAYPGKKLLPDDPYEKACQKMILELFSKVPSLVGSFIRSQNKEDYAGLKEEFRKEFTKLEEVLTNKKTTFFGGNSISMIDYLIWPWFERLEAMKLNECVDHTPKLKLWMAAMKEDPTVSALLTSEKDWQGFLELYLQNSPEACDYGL
"isoTOP-ABPP ratio Q9NS86_C187 ([5]; 200 μM, insitu, 231)","isoTOP-ABPP ratio O95229_C54 ([1]; 200 μM, insitu, 231)","isoTOP-ABPP ratio P62888_C92 ([2]; 200 μM, insitu, 231)","isoTOP-ABPP ratio P49588_C773 ([6]; 200 μM, insitu, 231)","isoTOP-ABPP ratio P04406_C152 ([3]; 200 μM, insitu, 231)","isoTOP-ABPP ratio Q9UKF6_C498 ([4]; 200 μM, insitu, 231)","isoTOP-ABPP ratio P78417_C32 ([7]; 200 μM, insitu, 231)",Structure (SMILES),also measured
,,,,,,,COc1ccc2c(c1)CCCN2C(=O)CCl [compound 2],"isoTOP-ABPP reactivity O95229_C54 ZWINT ([1]; 200 μM, insitu, 231): 3.4; isoTOP-ABPP reactivity P62888_C92 RPL30 ([2]; 200 μM, insitu, 231): 1.0; isoTOP-ABPP reactivity P04406_C152 GAPDH ([3]; 200 μM, insitu, 231): 20.0; isoTOP-ABPP reactivity Q9UKF6_C498 CPSF3 ([4]; 200 μM, insitu, 231): 6.2"
0.4,0.5,0.6,0.6,0.5,1.5,20.0,CC(C)CCOCCNC(=O)CCl [compound 27],
2.0,20.0,1.1,0.9,0.9,4.1,20.0,O=C(CCl)NC(=O)NC12CC3CC(CC(C3)C1)C2 [compound 12],
0.9,0.8,0.9,1.1,1.3,1.4,,O=C(CCl)NC12CC3CC(CC(C3)C1)C2 [compound 21],
6.3,2.3,1.3,2.1,1.0,20.0,20.0,O=C(CCl)N1CCN(S(=O)(=O)c2ccccc2F)CC1 [compound 10],"isoTOP-ABPP ratio P62888_C92 ([2]; 200 μM, insitu, ramos): 4.5; isoTOP-ABPP ratio P49588_C773 ([6]; 200 μM, insitu, ramos): 1.7; isoTOP-ABPP ratio P04406_C152 ([3]; 200 μM, insitu, ramos): 0.9; isoTOP-ABPP ratio Q9UKF6_C498 ([4]; 200 μM, insitu, ramos): 2.8; isoTOP-ABPP ratio P78417_C32 ([7]; 200 μM, insitu, ramos): 20.0"
0.6,0.6,0.8,0.7,0.6,1.0,0.3,Cc1ccc(C=C(C#N)C(=O)NCCN2CCOCC2)cc1 [compound 41],
,,,,,,,Cn1cc(S(=O)(=O)N2CCOCC2)cc1C(=O)NC(=O)CCl [compound 11],isoTOP-ABPP ratio Q9NS86_C187 ([5]; 100 μM in situ 231): 0.8; isoTOP-ABPP ratio O95229_C54 ([1]; 100 μM in situ 231): 1.2; isoTOP-ABPP ratio P62888_C92 ([2]; 100 μM in situ 231): 0.8; isoTOP-ABPP ratio P49588_C773 ([6]; 100 μM in situ 231): 0.9; isoTOP-ABPP ratio P04406_C152 ([3]; 100 μM in situ 231): 0.8; isoTOP-ABPP ratio Q9UKF6_C498 ([4]; 100 μM in situ 231): 1.3
,0.7,0.9,,0.8,,20.0,COc1ccccc1OCCNC(=O)CCl [compound 28],
3.1,,2.2,10.1,20.0,20.0,1.9,CC1CCc2ccccc2N1C(=O)CCl (centres unmarked) [compound 45],
2.0,1.0,0.9,,1.0,,,O=C(CCl)Nc1cccc2ncccc12 [compound 51],
2.0,,3.2,0.7,0.9,,1.0,C=CC(=O)Nc1cc(F)c(N2CCN(C(=O)OC(C)(C)C)CC2)c(F)c1 [compound 38],
,,,,,,,COc1cc2c(cc1OC)CN(C(=O)CCl)CC2 [compound 8],"isoTOP-ABPP reactivity Q9NS86_C187 LANCL2 ([5]; 200 μM, insitu, 231): 6.1; isoTOP-ABPP reactivity O95229_C54 ZWINT ([1]; 200 μM, insitu, 231): 3.1; isoTOP-ABPP reactivity P62888_C92 RPL30 ([2]; 200 μM, insitu, 231): 1.5; isoTOP-ABPP reactivity P49588_C773 AARS ([6]; 200 μM, insitu, 231): 1.5; isoTOP-ABPP reactivity P04406_C152 GAPDH ([3]; 200 μM, insitu, 231): 1.1; isoTOP-ABPP reactivity Q9UKF6_C498 CPSF3 ([4]; 200 μM, insitu, 231): 20.0; isoTOP-ABPP reactivity P78417_C32 GSTO1 ([7]; 200 μM, insitu, 231): 20.0"
0.5,,,,0.8,,0.8,C=CC(=O)N(Cc1cccnc1)c1cc(C(F)(F)F)cc(C(F)(F)F)c1 [compound 31],"isoTOP-ABPP ratio P49588_C773 ([6]; 200 μM, insitu, ramos): 1.2; isoTOP-ABPP ratio P04406_C152 ([3]; 200 μM, insitu, ramos): 1.0; isoTOP-ABPP ratio P78417_C32 ([7]; 200 μM, insitu, ramos): 2.6"
1.0,0.8,0.8,0.8,0.9,,20.0,O=C(CCl)NCCc1c[nH]c2ccccc12 [compound 13],"isoTOP-ABPP ratio Q9NS86_C187 ([5]; 200 μM, insitu, ramos): 1.1; isoTOP-ABPP ratio O95229_C54 ([1]; 200 μM, insitu, ramos): 1.4; isoTOP-ABPP ratio P62888_C92 ([2]; 200 μM, insitu, ramos): 2.0; isoTOP-ABPP ratio P49588_C773 ([6]; 200 μM, insitu, ramos): 1.1; isoTOP-ABPP ratio P04406_C152 ([3]; 200 μM, insitu, ramos): 0.9; isoTOP-ABPP ratio Q9UKF6_C498 ([4]; 200 μM, insitu, ramos): 1.4; isoTOP-ABPP ratio P78417_C32 ([7]; 200 μM, insitu, ramos): 20.0"
,,,,,,,O=C(CCl)N1CCC(Cc2ccccc2)CC1 [compound 9],"isoTOP-ABPP reactivity Q9NS86_C187 LANCL2 ([5]; 200 μM, insitu, 231): 15; isoTOP-ABPP reactivity O95229_C54 ZWINT ([1]; 200 μM, insitu, 231): 3.7; isoTOP-ABPP reactivity P62888_C92 RPL30 ([2]; 200 μM, insitu, 231): 1.3; isoTOP-ABPP reactivity P49588_C773 AARS ([6]; 200 μM, insitu, 231): 1.5; isoTOP-ABPP reactivity P04406_C152 GAPDH ([3]; 200 μM, insitu, 231): 1.7"
,,,,,,,COc1ccc(C2CC(c3cccs3)=NN2C(=O)CCl)cc1 (centres unmarked) [compound 4],isoTOP-ABPP reactivity Q9NS86_C187 LANCL2 ([5]; 100 μM in situ 231): 1.6; isoTOP-ABPP reactivity O95229_C54 ZWINT ([1]; 100 μM in situ 231): 12.4; isoTOP-ABPP reactivity P62888_C92 RPL30 ([2]; 100 μM in situ 231): 2.7; isoTOP-ABPP reactivity P49588_C773 AARS ([6]; 100 μM in situ 231): 1.3; isoTOP-ABPP reactivity P04406_C152 GAPDH ([3]; 100 μM in situ 231): 1.6; isoTOP-ABPP reactivity Q9UKF6_C498 CPSF3 ([4]; 100 μM in situ 231): 3.5; isoTOP-ABPP reactivity P78417_C32 GSTO1 ([7]; 100 μM in situ 231): 19.9
,,,,,,,O=C(CCl)N1CCN(CC(=O)N2CCOCC2)CC1 [compound 29],"isoTOP-ABPP ratio Q9NS86_C187 ([5]; 200 μM, insitu, ramos): 1.7; isoTOP-ABPP ratio O95229_C54 ([1]; 200 μM, insitu, ramos): 1.2; isoTOP-ABPP ratio P62888_C92 ([2]; 200 μM, insitu, ramos): 2.0; isoTOP-ABPP ratio P49588_C773 ([6]; 200 μM, insitu, ramos): 1.1; isoTOP-ABPP ratio P04406_C152 ([3]; 200 μM, insitu, ramos): 1.2; isoTOP-ABPP ratio Q9UKF6_C498 ([4]; 200 μM, insitu, ramos): 2.3; isoTOP-ABPP ratio P78417_C32 ([7]; 200 μM, insitu, ramos): 20.0"
